{
  "source": "patent US7776917B2",
  "about": "“Non-standard amino acid conjugates of amphetamine and processes for making and using the same” (priority 2006, dated 2010)",
  "key": {"[1]": {"assay": "Intravenous PK study d-amphetamine, hArg-Amp, Orn-Amp (Example 11)", "details": "[…] equivalent, n=5, d-amphetamine in plasma"}, "[2]": {"assay": "Intranasal PK study d-amphetamine, hArg-Amp, Orn-Amp (Example 10)", "details": "[…] equivalent, n=5, d-amphetamine in plasma, given in minutes"}, "[3]": {"assay": "Oral PK study Lys-Amp, hArg-Amp, Orn-Amp, Cit-Amp (Example 9)", "details": "in words"}, "[4]": {"assay": "Parenteral (intranasal, intravenous) administration of hArg-Amp, release of amphetamine (Example 1)", "details": "parenteral routes (intranasal, intravenous)"}, "[5]": {"details": "oral; hArg-Amp = 100%"}, "[6]": {"assay": "Average results of 4 oral PK studies, Lys-Amp vs hArg-Amp (Example 7)", "details": "average of 4 oral studies, n=20; Lys-Amp = 100%"}},
  "note": "Like-named read-outs stand apart in the source and are kept apart here.",
  "data": [
    {"compound": "C[C@H](N)Cc1ccccc1", "note": "[d-amp, d-amphetamine]", "values": [
      {"measurement": "Tmax", "setting": "[1]", "result": 15, "unit": "m"},
      {"measurement": "Tmax", "setting": "[2]", "result": 15, "unit": "m"}
    ]},
    {"compound": "l-citrulline-d-amphetamine hydrochloride [Cit-Amp]", "values": [
      {"measurement": "Tmax compared to Lys-Amp", "setting": "[3]", "result": "significantly shifted the Tmax"}
    ]},
    {"compound": "C[C@@H](Cc1ccccc1)NC(=O)[C@@H](N)CCCCN=C(N)N.Cl.Cl", "note": "[hArg-Amp, l-homoarginine-d-amphetamine Dihydrochloride]", "values": [
      {"measurement": "release of amphetamine", "setting": "[4]", "result": "< 50", "unit": "%"},
      {"measurement": "% Tmax", "setting": "[5]", "result": 100, "unit": "%"}
    ]},
    {"compound": "l-lysine-d-amphetamine [Lys-Amp]", "values": [
      {"measurement": "% Tmax", "setting": "[6]", "result": 100, "unit": "%"}
    ]}
  ]
}
